Reference: US6743809B2, “Indole Derivatives useful for the treatment of CNS disorders” (H. Lundbeck A/S, priority 2000, dated 2004)

The compounds below were run against T1, human cloned dopamine D4.2 receptors (Homo sapiens, UniProt P21917, DEL265-296) (assay: Inhibition of the binding of [3H]YM-09151-2 to human dopamine D4 receptors). Settings: 50 nM compound; [3H]YM-09151-2 0.06 nM; membranes of CHO-cells.
T1 construct: expressed in transfected cells; host or cells: CHO cells
T1 sequence (P21917 with tags, fused parts or gaps DEL265-296): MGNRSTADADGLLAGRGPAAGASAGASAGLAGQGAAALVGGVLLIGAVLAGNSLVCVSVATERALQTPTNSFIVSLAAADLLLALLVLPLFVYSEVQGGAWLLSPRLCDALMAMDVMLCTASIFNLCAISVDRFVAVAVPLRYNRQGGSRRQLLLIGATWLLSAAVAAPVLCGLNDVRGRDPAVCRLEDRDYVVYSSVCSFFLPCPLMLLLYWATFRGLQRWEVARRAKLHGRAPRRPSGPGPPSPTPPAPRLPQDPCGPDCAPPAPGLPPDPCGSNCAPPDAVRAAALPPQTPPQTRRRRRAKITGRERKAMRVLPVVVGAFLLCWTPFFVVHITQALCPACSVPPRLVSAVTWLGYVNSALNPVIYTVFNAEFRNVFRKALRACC
Method: Inhibition of the Binding of [^3H]YM-09151-2 to Human Dopamine D4 Receptors
By this method, the inhibition by drugs of the binding of [^3H]YM-09151-2 (0.06 nM) to membranes of human cloned dopamine D4.2 receptors expressed in CHO-cells is determined in vitro. The method is modified from NEN Life Science Products, Inc., technical data certificate PC2533-10/96.

| Compound | inhibition at 0.05 µM [%] | % inhibition of binding at 50 nM [%] |
| --- | --- | --- |
| Cc1ccc(NC(=O)C2CCCC2)cc1CCN1CCC(c2c[nH]c3cc(Cl)ccc23)CC1 [Compound 3v, 3-[1-(2-{5-[(Cyclopentylmethanoyl)amino]-2-methylphenyl}ethyl)piperidin-4-yl]-6-chloro-1H-indole] | 95 | – |
| Cc1ccc(NC(=O)c2ccccc2)cc1CCN1CCC(c2c[nH]c3c(Cl)cccc23)CC1 [Compound 4d, 3-(1-{2-[5-(benzoylamino)-2-Methylphenyl]ethyl}piperidin-4-yl)-7-chloro-1H-indole] | 48 | – |
| Cc1ccc(NC(=O)c2cnns2)cc1CCN1CCC(c2c[nH]c3c(Cl)cccc23)CC1 [Compound 4k, 3-[1-(2-{2-Methyl-5-[(1-[1,2,3]thiadiazol-5-ylmethanoyl)amino]phenyl}ethyl)piperidin-4-yl]-7-chloro-1H-indole] | 67 | – |
| COc1ccc(C(=O)Nc2ccc(C)c(CCN3CCC(c4c[nH]c5c(Cl)cccc45)CC3)c2)cc1 [Compound 4f, 3-(1-{2-[5-(4-Methoxybenzoylamino)-2-methylphenyl]ethyl}piperidin-4-yl)-7-chloro-1H-indole] | 48 | – |
| Cc1ccc(NC(=O)c2cccs2)cc1CCN1CCC(c2c[nH]c3c(Cl)cccc23)CC1 [Compound 4i, 3-[1-(2-{2-Methyl-5-[(thiophen-2-ylmethanoyl)amino]phenyl}ethyl)piperidin-4-yl]-7-chloro-1H-indole] | 85 | – |
| Cc1ccc(NC(=O)C(C)C)cc1CCN1CCC(c2c[nH]c3cc(Cl)ccc23)CC1 [Compound 3q, 3-(1-{2-[5-(Isobutanoylamino)-2-methylphenyl]ethyl}piperidin-4-yl)-6-chloro-1H-indole] | 97 | – |
| Cc1ccc(NC(=O)c2cccs2)cc1CCN1CCC(c2c[nH]c3ccc(Cl)cc23)CC1 [Compound 3b, 3-(1-{2-[2-Methyl-5-(thiophen-2-ylmethanoylamino)phenyl]ethyl}piperidin-4-yl)-5-chloro-1H-indole] | 86 | – |
| Cc1ccc(NC(=O)c2ccsc2)cc1CCN1CCC(c2c[nH]c3c(Cl)cccc23)CC1 [Compound 4j, 3-[1-(2-{2-Methyl-5-[(thiophen-3-ylmethanoyl)amino]phenyl}ethyl)piperidin-4-yl]-7-chloro-1H-indole] | 48 | – |
| Cc1ccc(C(=O)Nc2ccc(C)c(CCN3CCC(c4c[nH]c5cc(Cl)ccc45)CC3)c2)cc1 [Compound 3u, 3-(1-{2-[2-Methyl-5-(4-methylbenzoylamino)phenyl]ethyl}piperidin-4-yl)-6-chloro-1H-indole] | 86 | – |
| COc1cccc(C(=O)Nc2ccc(C)c(CCN3CCC(c4c[nH]c5ccc(Cl)cc45)CC3)c2)c1 [Compound 3c, 3-(1-{2-[2-Methyl-5-(3-methoxybenzoylamino)phenyl]ethyl}piperidin-4-yl)-5-chloro-1H-indole] | 68 | – |
| Cc1ccc(NC(=O)c2ccc(F)cc2)cc1CCN1CCC(c2c[nH]c3c(Cl)cccc23)CC1 [Compound 4e, 3-(1-{2-[5-(4-Fluorobenzoylamino)-2-methylphenyl]ethyl}piperidin-4-yl)-7-chloro-1H-indole] | 44 | – |
| Cc1ccc(NC(=O)c2cccs2)cc1CCN1CCC(c2c[nH]c3ccc(F)cc23)CC1 [Compound 3e, 3-(1-{2-[2-Methyl-5-(thiophen-2-ylmethanoylamino)phenyl]ethyl}piperidin-4-yl)-5-fluoro-1H-indole] | 89 | – |
| Cc1ccc(NC(=O)C2CC2)cc1CCN1CCC(c2c[nH]c3ccc(F)cc23)CC1 [Compound 3d, 3-(1-{2-[5-(Cyclopropylmethanoylamino)-2-methylphenyl]ethyl}piperidin-4-yl)-5-fluoro-1H-indole] | 89 | – |
| CC(=O)Nc1ccc(C)c(CCN2CCC(c3c[nH]c4ccc(F)cc34)CC2)c1 [Compound 3a, 3-(1-{2-[5-(Acetylamino)-2-methylphenyl]ethyl}piperidin-4-yl)-5-fluoro-1H-indole] | 83 | – |
| Cc1ccc(NC(=O)C2CCOCC2)cc1CCN1CCC(c2c[nH]c3ccc(F)cc23)CC1 [Compound 3aa, 3-(1-{2-[2-Methyl-5-(tetrahydropyran-4-ylmethanoylamino)phenyl]ethyl}piperidin-4-yl)-5-fluoro-1H-indole] | 96 | – |
| Cc1ccc(NC(=O)CCc2ccccc2)cc1CCN1CCC(c2c[nH]c3ccc(F)cc23)CC1 [Compound 3l, 3-(1-{2-[2-Methyl-5-(3-phenylpropanoylamino)phenyl]ethyl}piperidin-4-yl)-5-fluoro-1H-indole] | 74 | – |
| Cc1ccc(NC(=O)CCC2CCCCC2)cc1CCN1CCC(c2c[nH]c3ccc(F)cc23)CC1 [Compound 3ac, 3-(1-{2-[5-(3-Cyclohexylpropanoylamino)-2-methylphenyl]ethyl}piperidin-4-yl)-5-fluoro-1H-indole] | 97 | – |

| Compound | inhibition at 0.05 µM [%] | % inhibition of binding at 50 nM [%] |
| --- | --- | --- |
| Cc1ccc(NC(=O)c2cccnc2)cc1CCN1CCC(c2c[nH]c3cc(Cl)ccc23)CC1 [Compound 3s, 3-(1-{2-[2-Methyl-5-(pyridin-3-ylmethanoylamino)phenyl]ethyl}piperidin-4-yl)-6-chloro-1H-indole] | 92 | – |
| COc1cccc(C(=O)Nc2ccc(C)c(CCN3CCC(c4c[nH]c5cc(Cl)ccc45)CC3)c2)c1 [Compound 3r, 3-(1-{2-[5-(3-Methoxybenzoylamino)-2-methylphenyl]ethyl}piperidin-4-yl)-6-chloro-1H-indole] | 88 | – |
| Cc1ccc(NC(=O)Cc2ccccc2)cc1CCN1CCC(c2c[nH]c3c(Cl)cccc23)CC1 [Compound 3ae, 3-[1-(2-{5-[(2-Phenylethanoyl)amino]-2-methylphenyl}ethyl)piperidin-4-yl]-7-chloro-1H-indole] | 89 | – |
| 3-(1-{2-[5-(Isobutanolamino)-2-methylphenyl]ethyl}piperidin-4-yl)-5-fluoro-1H-indole [Compound 3f] | – | 96 |
| Cc1ccc(NC(=O)C2CC2)cc1CCN1CCC(c2c[nH]c3c(Cl)cccc23)CC1 [Compound 3ag, 3-(1-{2-[5-(Cyclopropylmethanoylamino)-2-methylphenyl]ethyl}piperidin-4-yl)-7-chloro-1H-indole] | 95 | – |
| Cc1ccc(NC(=O)c2cccnc2)cc1CCN1CCC(c2c[nH]c3ccc(F)cc23)CC1 [Compound 3k, 3-(1-{2-[2-Methyl-5-(pyridin-3-ylmethanoylamino)phenyl]ethyl}piperidin-4-yl)-5-fluoro-1H-indole] | 91 | – |
| Cc1ccc(NC(=O)c2ccc(Cl)cc2)cc1CCN1CCC(c2c[nH]c3c(Cl)cccc23)CC1 [Compound 3ab, 3-(1-{2-[5-(4-Chlorobenzoylamino)-2-methylphenyl]ethyl}piperidin-4-yl)-7-chloro-1H-indole] | 79 | – |
| Cc1ccc(NC(=O)Nc2ccc(F)cc2)cc1CCN1CCC(c2c[nH]c3ccc(F)cc23)CC1 [Compound 3y, 3-[1-(2-{5-[3-(4-Fluorophenyl)ureido]-2-methylphenyl}ethyl)piperidin-4-yl]-5-fluoro-1H-indole] | 83 | – |
| Cc1ccc(NC(=O)c2ccncc2)cc1CCN1CCC(c2c[nH]c3c(Cl)cccc23)CC1 [Compound 4h, 3-[1-(2-{2-Methyl-5-[(pyridin-4-ylmethanoyl)amino]phenyl}ethyl)piperidin-4-yl]-7-chloro-1H-indole] | 73 | – |
| Cc1ccc(NC(=O)C2CC2)cc1CCN1CCC(c2c[nH]c3cc(Cl)ccc23)CC1 [Compound 3o, 3-(1-{2-[5-(Cyclopropylmethanoylamino)-2-methylphenyl]ethyl}piperidin-4-yl)-6-chloro-1H-indole] | 99 | – |
| CCCCCC(=O)Nc1ccc(C)c(CCN2CCC(c3c[nH]c4ccc(F)cc34)CC2)c1 [Compound 3h, 3-(1-{2-[5-(Hexanoylamino)-2-methylphenyl]ethyl}piperidin-4-yl)-5-fluoro-1H-indole] | 83 | – |
| Cc1ccc(NC(=O)N(C)c2ccccc2)cc1CCN1CCC(c2c[nH]c3cc(Cl)ccc23)CC1 [Compound 3n, 3-(1-{2-[2-Methyl-5-(3-Methyl-3-phenylureido)phenyl]ethyl}piperidin-4-yl)-6-chloro-1H-indole] | 76 | – |
| Cc1ccc(NC(=O)CCc2ccccc2)cc1CCN1CCC(c2c[nH]c3c(Cl)cccc23)CC1 [Compound 3ad, 3-[1-(2-{5-[(3-Phenylpropanoyl)amino]-2-methylphenyl}ethyl)piperidin-4-yl]-7-chloro-1H-indole] | 83 | – |
| Cc1ccc(NC(=O)N2CCOCC2)cc1CCN1CCC(c2c[nH]c3ccc(F)cc23)CC1 [Compound 3x, 3-(1-{2-[2-Methyl-5-(morfolin-4-ylmethanoylamino)phenyl]ethyl}piperidin-4-yl)-5-fluoro-1H-indole] | – | 90 |
| COc1cccc(C(=O)Nc2ccc(C)c(CCN3CCC(c4c[nH]c5ccc(F)cc45)CC3)c2)c1 [Compound 3j, 3-(1-{2-[5-(3-Methoxybenzoylamino)-2-methylphenyl]ethyl}piperidin-4-yl)-5-fluoro-1H-indole] | 90 | – |
| Cc1ccc(C(=O)Nc2ccc(C)c(CCN3CCC(c4c[nH]c5ccc(F)cc45)CC3)c2)cc1 [Compound 3m, 3-(1-{2-[2-Methyl-5-(4-methylbenzoylamino)phenyl]ethyl}piperidin-4-yl)-5-fluoro-1H-indole] | 81 | – |
